Assay results from the supplement of paper PMC10307832.

How the values were obtained:
Experiment in all cases: relative viability (nuclei count vs DMSO), 5 days (fraction); higher = more cells survive
Kobe2602 + OSI-027 = compound: C1=CC(=CC=C1NC(=S)NNC2=C(C=C(C=C2[N+](=O)[O-])C(F)(F)F)[N+](=O)[O-])F [Kobe2602] + COc1cccc2cc(-c3nc([C@H]4CC[C@H](C(=O)O)CC4)n4ncnc(N)c34)[nH]c12 [OSI-027] (partner 0.5 µM)
Method in brief: (§1)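 Relative viability divides the nuclei count in treated wells by that in vehicle wells. Lung cancer cell lines were seeded in 1536-well plates, dosed by pin tool the next day, and fixed and stained after 5 days in one step with final 0.05% Triton X-100, 1% formaldehyde and 1 ug/ml Hoechst. Dosing was a single drug or a fixed anchor-drug dose plus five library-drug doses (not always all listed) in √10 steps, and values are medians of duplicate plates imaged at 4×.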

Kobe2602 + Decitabine = compound: C1=CC(=CC=C1NC(=S)NNC2=C(C=C(C=C2[N+](=O)[O-])C(F)(F)F)[N+](=O)[O-])F [Kobe2602] + Nc1ncn([C@H]2C[C@H](O)[C@@H](CO)O2)c(=O)n1 [Decitabine] (partner 2 µM)
Method in brief: as §1

[1] = compound: COc1cc2nccc(Oc3ccc(NC(=O)C4(C(=O)Nc5ccc(F)cc5)CC4)cc3)c2cc1OC [Cabozantinib] + CC1(C)CCC(c2ccc(Cl)cc2)=C(CN2CCN(c3ccc(C(=O)NS(=O)(=O)c4ccc(N[C@H](CCN5CCOCC5)CSc5ccccc5)c(S(=O)(=O)C(F)(F)F)c4)cc3)CC2)C1 [Navitoclax] (partner 0.5 µM)
Method in brief: as §1

Cabozantinib + AZD7762 = compound: COc1cc2nccc(Oc3ccc(NC(=O)C4(C(=O)Nc5ccc(F)cc5)CC4)cc3)c2cc1OC [Cabozantinib] + NC(=O)Nc1cc(-c2cccc(F)c2)sc1C(=O)N[C@H]1CCCNC1 [AZD7762] (partner 0.2 µM)
Method in brief: as §1

| Cell Line | relative viability (Kobe2602 + OSI-027; first compound 0.2 µM) | relative viability (Kobe2602 + OSI-027; first compound 0.6325 µM) | relative viability (Kobe2602 + OSI-027; first compound 2 µM) | relative viability (Kobe2602 + OSI-027; first compound 6.325 µM) | relative viability (Kobe2602 + OSI-027; first compound 20 µM) | relative viability (Kobe2602 + Decitabine; first compound 0.2 µM) | relative viability (Kobe2602 + Decitabine; first compound 0.6325 µM) | relative viability (Kobe2602 + Decitabine; first compound 2 µM) | relative viability (Kobe2602 + Decitabine; first compound 6.325 µM) | relative viability (Kobe2602 + Decitabine; first compound 20 µM) | relative viability ([1]; first compound 0.02 µM) | relative viability ([1]; first compound 0.06325 µM) | relative viability ([1]; first compound 0.2 µM) | relative viability ([1]; first compound 0.6325 µM) | relative viability ([1]; first compound 2 µM) | relative viability (Cabozantinib + AZD7762; first compound 0.02 µM) | relative viability (Cabozantinib + AZD7762; first compound 0.06325 µM) | relative viability (Cabozantinib + AZD7762; first compound 0.2 µM) | relative viability (Cabozantinib + AZD7762; first compound 0.6325 µM) | relative viability (Cabozantinib + AZD7762; first compound 2 µM) |
| --- | --- | --- | --- | --- | --- | --- | --- | --- | --- | --- | --- | --- | --- | --- | --- | --- | --- | --- | --- | --- |
| NCI-H1437 | 0.913 | 0.913 | 0.891 | 0.949 | 0.855 | 0.578 | 0.495 | 0.611 | 0.559 | 0.491 | 1.2 | 1.13 | 1.12 | 1.13 | 1.02 | 1.16 | 1.18 | 1.19 | 1.21 | 1.04 |
| EKVX | 0.684 | 0.68 | 0.707 | 0.659 | 0.695 | 0.337 | 0.377 | 0.349 | 0.43 | 0.385 | 0.899 | 1.1 | 0.879 | 1.03 | 1.07 | 0.693 | 0.856 | 0.558 | 0.703 | 0.763 |
| NCI-H596 | 0.802 | 0.698 | 0.661 | 0.56 | 0.815 | 1.03 | 1.03 | 1.07 | 1.12 | 1.23 | 1.22 | 1.2 | 0.861 | 0.829 | 0.729 | 1.12 | 1.35 | 1.15 | 1.07 | 1.09 |
| NCI-H1993 | 0.552 | 0.511 | 0.544 | 0.569 | 0.597 | 0.598 | 0.583 | 0.537 | 0.535 | 0.593 | 0.934 | 0.901 | 0.857 | 0.851 | 0.991 | 0.589 | 0.556 | 0.513 | 0.461 | 0.56 |
| HCC-78 | 0.39 | 0.375 | 0.722 | 0.385 | 0.44 | 0.65 | 0.711 | 0.6 | 0.724 | 0.727 | 0.71 | 0.682 | 0.307 | 0.224 | 0.186 |  | 0.699 | 0.466 | 0.46 | 0.39 |
| NCI-H2087 | 0.695 | 0.544 | 0.501 | 0.574 | 0.652 | 0.313 | 0.271 | 0.27 | 0.281 | 0.309 | 1.03 | 1.1 | 1.06 | 0.985 | 0.981 | 1.19 | 1.44 | 1.18 | 1.35 | 1.35 |
| H3255 | 0.52 | 0.73 | 0.613 | 0.605 | 0.564 | 0.554 | 0.719 | 0.57 | 0.634 | 0.653 | 0.491 | 0.676 |  | 0.687 | 0.553 | 0.938 | 1.14 |  | 0.911 | 0.923 |
| NCI-H2126 | 0.715 | 0.778 | 0.675 | 0.678 | 0.701 | 0.675 | 0.576 | 0.551 | 0.619 | 0.577 | 0.828 | 0.84 | 0.869 | 0.831 | 0.896 | 0.901 | 1.03 | 0.941 | 0.988 | 1.07 |
| LC-2-ad | 0.775 | 0.823 | 0.824 | 0.865 | 1.02 | 0.664 | 0.888 | 0.943 | 0.825 | 0.815 | 0.454 | 0.57 | 0.541 | 0.35 | 0.325 | 0.766 | 0.98 | 0.79 | 0.902 | 0.866 |
| SW 1573 | 0.722 | 0.535 | 0.531 | 0.62 | 0.303 | 0.483 | 0.614 | 0.453 | 0.493 | 0.318 | 1.04 | 1.17 | 0.887 | 1 | 0.81 |  |  |  |  |  |
| EBC-1 |  |  |  |  |  |  |  |  |  |  | 0.444 | 0.302 | 0.152 | 0.125 | 0.0913 |  |  |  |  |  |
| HCC-15 | 0.629 | 0.723 | 0.616 | 0.676 | 0.637 | 0.662 | 0.649 | 0.537 | 0.627 | 0.62 | 0.743 | 0.739 | 0.77 | 0.67 | 0.645 | 1.22 | 1.27 | 1.13 | 1.26 | 1.19 |
| NCI-H1650 | 0.546 | 0.756 | 0.546 | 0.631 | 0.676 | 0.42 | 0.473 | 0.381 | 0.338 | 0.366 | 1.19 | 1.5 | 1.07 | 1.23 | 1.06 |  |  |  |  |  |
| COR-L 105 | 0.631 | 0.784 | 0.623 | 0.82 | 0.843 | 0.706 | 0.679 | 0.473 | 0.739 | 0.602 | 0.789 | 0.771 |  | 0.657 | 0.743 |  |  |  |  |  |
| NCI-H650 | 0.514 | 0.593 | 0.477 | 0.529 | 0.527 | 0.313 | 0.304 | 0.32 | 0.289 | 0.376 |  |  |  |  |  | 0.959 | 1.24 | 0.938 | 1.04 | 0.982 |
| LXF-289 | 0.836 | 0.836 | 0.777 | 0.879 | 0.87 | 0.387 | 0.432 | 0.386 | 0.381 | 0.378 | 0.991 | 0.934 | 0.926 | 0.927 | 0.933 | 1.15 | 1.07 | 1.13 | 1.09 | 1.06 |
| NCI-H1703 |  |  |  |  |  |  |  |  |  |  | 0.618 | 0.48 | 0.265 | 0.258 | 0.206 | 0.118 | 0.129 | 0.133 | 0.136 | 0.139 |
| SK-MES-1 | 0.591 | 0.637 | 0.488 | 0.642 | 0.226 | 0.411 | 0.378 | 0.335 | 0.396 | 0.321 | 1.28 | 1.24 | 1.22 | 1.23 | 1.19 |  |  |  |  |  |
